We go through 20 compounds from US9353090B2, “Heterocyclic carboxylic acids as activators of soluble guanylate cyclase” (Boehringer Ingelheim International GmbH, priority 2014, dated 2016).

Data set [1] is described as follows: physchem. The following applies: kinetic from dmso stock.
For data set [2], the target named is human soluble guanylate cyclase alpha 1 and beta 1 subunits (sGC) (Homo sapiens (Human), UniProt Q02108+Q02153). Kind of data set: sGC cellular activator assay (cGMP, HTRF), in the presence and absence of 50% human serum. It is filed as cell-based. The following applies: CHO cells stably expressing human sGC alpha 1/beta 1, preincubated with 40 microM ODQ; cGMP by HTRF; Table 2 does not state whether with or without 50% human serum. Summed up: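 First, CHO-sGC (human α1β1) cells get 1 h ODQ at 40 microM with IBMX and 0.1% BSA. Finally, cGMP is quantified by HTRF and EC50 computed.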
Chain of human soluble guanylate cyclase alpha 1 and beta 1 subunits (sGC) (Q02108 whole entry partner): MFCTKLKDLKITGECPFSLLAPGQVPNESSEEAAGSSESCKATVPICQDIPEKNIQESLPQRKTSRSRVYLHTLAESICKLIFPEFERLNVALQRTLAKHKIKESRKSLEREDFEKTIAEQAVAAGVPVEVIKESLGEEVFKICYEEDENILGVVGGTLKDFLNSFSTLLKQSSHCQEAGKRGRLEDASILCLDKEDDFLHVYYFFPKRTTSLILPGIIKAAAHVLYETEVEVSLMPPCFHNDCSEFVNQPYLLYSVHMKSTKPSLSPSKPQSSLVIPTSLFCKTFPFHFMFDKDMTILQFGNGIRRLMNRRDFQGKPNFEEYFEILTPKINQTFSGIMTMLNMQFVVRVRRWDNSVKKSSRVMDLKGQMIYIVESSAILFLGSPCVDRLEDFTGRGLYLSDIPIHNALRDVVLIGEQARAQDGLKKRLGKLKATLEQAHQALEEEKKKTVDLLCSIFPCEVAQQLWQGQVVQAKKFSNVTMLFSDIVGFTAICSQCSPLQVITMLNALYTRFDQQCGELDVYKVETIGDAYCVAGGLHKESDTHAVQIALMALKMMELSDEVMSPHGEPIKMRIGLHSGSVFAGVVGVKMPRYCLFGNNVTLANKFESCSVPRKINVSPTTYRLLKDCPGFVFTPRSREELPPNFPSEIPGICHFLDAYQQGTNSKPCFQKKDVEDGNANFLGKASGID
Chain of human soluble guanylate cyclase alpha 1 and beta 1 subunits (sGC) (Q02153 whole entry): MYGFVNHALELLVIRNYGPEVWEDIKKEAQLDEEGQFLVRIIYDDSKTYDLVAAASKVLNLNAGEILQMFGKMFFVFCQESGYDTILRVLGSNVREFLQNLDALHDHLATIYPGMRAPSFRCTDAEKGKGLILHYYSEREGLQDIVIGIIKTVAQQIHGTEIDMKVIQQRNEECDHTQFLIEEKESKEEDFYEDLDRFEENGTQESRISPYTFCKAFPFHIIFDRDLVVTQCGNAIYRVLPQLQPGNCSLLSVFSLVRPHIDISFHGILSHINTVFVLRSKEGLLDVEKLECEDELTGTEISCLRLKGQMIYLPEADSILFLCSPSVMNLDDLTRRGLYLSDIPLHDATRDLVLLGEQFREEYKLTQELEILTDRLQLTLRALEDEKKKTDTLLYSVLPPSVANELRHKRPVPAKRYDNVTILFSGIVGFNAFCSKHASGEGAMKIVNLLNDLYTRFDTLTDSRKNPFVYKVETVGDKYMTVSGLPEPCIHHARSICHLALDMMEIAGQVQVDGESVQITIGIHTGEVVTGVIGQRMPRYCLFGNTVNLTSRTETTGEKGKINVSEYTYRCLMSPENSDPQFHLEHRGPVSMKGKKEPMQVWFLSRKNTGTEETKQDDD
(In general: In TR-FRET formats the signal depends on donor and acceptor labels being close together.)

Data set [3] is described as follows: Human liver microsome (HLM) metabolic stability assay. Type of data set: in vitro ADME. The following applies: human liver microsomes. In a few lines: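 Remaining parent measured by LC/MS/MS (ESI, MRM) at 5, 15, 30 and 60 min relative to 0 min. Incubation: 1 uM compound, HLMs, NADPH-started, 37° C., 60 min total, single replicate. Slope of ln(% remaining) gives t1/2 = 0.693/slope, then CLint, CLh and % Qh.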

The mark [4] stands for this setting: pH 2.2, aqueous buffer, Solubility (pH 2.2).
Setting [5] is: pH 4.5, aqueous buffer, Solubility (pH 4.5).
The mark [6] stands for this setting: pH 6.8, aqueous buffer, Solubility (pH 6.8).

Values after ≈ are worked out from the molar mass of the structure shown.

As for `Cc1ccc(OCc2ccc3c(c2C)CCN(C2COC2)CC3)c(-c2csc(N3C[C@@H]4C[C@]4(C(=O)O)C3)n2)c1` [Compound 149], the results for the solubility at 24 h in data set [1] (setting [4]), in data set [1] (setting [5]) and in data set [1] (setting [6]) were 98 µg/mL (≈ 180 µM), 37 µg/mL (≈ 67.8 µM) and 35 µg/mL (≈ 64.1 µM), respectively. Further, the EC50 (as a rule, the midpoint of the concentration-response curve) in data set [2] worked out at 34 nM. Besides, in data set [3], the “Metabolic stability (Qh %), % hepatic blood flow” value (“Metabolic stability (Qh %)” below) was below 24%.

For `COC[C@H]1N(c2cccc(-c3cccc(C)c3OCc3ccc4c(c3)[C@H](C)CN(C3CCOCC3)CC4)n2)C[C@@H]2C[C@@]21C(=O)O` [Compound 226], the solubility (usually the concentration that dissolves in the medium under given conditions) at 24 h came to 145 µg/mL (≈ 237 µM) in data set [1] (setting [4]), 142 µg/mL (≈ 231 µM) in data set [1] (setting [5]) and 134 µg/mL (≈ 219 µM) in data set [1] (setting [6]). Also, the EC50 in data set [2] came to 6 nM. For the same compound, the “Metabolic stability (Qh %)” value in data set [3] is below 24%.

With `CO[C@H]1CN(c2cccc(-c3cccc(Cl)c3OCc3cc(C)c4c(c3)CCN(C3CCOCC3)C4)n2)CC[C@H]1C(=O)O` [Compound 250], the solubility at 24 h in data set [1] (setting [4]) amounted to 147 µg/mL (≈ 243 µM); in data set [1] (setting [5]) it was 82.2 µg/mL (≈ 136 µM); in data set [1] (setting [6]), 51.9 µg/mL (≈ 85.6 µM). In addition, a half-maximal response in data set [2] (EC50) required 7 nM. The “Metabolic stability (Qh %)” value in data set [3] is 33%.

For the compound `Cc1c(COc2ccccc2-c2cccc(N3CC[C@@]4(C(=O)O)C[C@H]4C3)n2)ccc2c1CCNC2` [Compound 305], the solubility at 24 h is 108 µg/mL (≈ 231 µM) in data set [1] (setting [4]), 81.2 µg/mL (≈ 173 µM) in data set [1] (setting [5]) and 0.7 µg/mL (≈ 1.49 µM) in data set [1] (setting [6]). The same compound registered an EC50 in data set [2] of 340 nM. Also, in data set [3], the “Metabolic stability (Qh %)” value is 30%.

Take `COC[C@H]1N(c2cccc(-c3cccc(C)c3OCc3cc(C)c4c(c3)CCN(C3COC3)C4)n2)C[C@@H]2C[C@@]21C(=O)O` [Compound 49]: the solubility at 24 h in data set [1] (setting [4]) was determined as 120 µg/mL (≈ 211 µM); in data set [1] (setting [5]) it was 95 µg/mL (≈ 167 µM); in data set [1] (setting [6]) it was 82 µg/mL (≈ 144 µM). Besides, the EC50 in data set [2] worked out at 12 nM. In addition, in data set [3], the “Metabolic stability (Qh %)” value was below 24%.

As to `CO[C@@H]1CN(c2nc(-c3cccc(Cl)c3OCc3ccc4c(c3C)CCN(C3CCOCC3)C4)cs2)CC[C@@H]1C(=O)O` [Compound 208], the solubility at 24 h in data set [1] (setting [4]) worked out at 139 µg/mL (≈ 228 µM); in data set [1] (setting [5]), 88.9 µg/mL (≈ 145 µM); in data set [1] (setting [6]) it was 77.1 µg/mL (≈ 126 µM). The compound further yielded an EC50 in data set [2] of 16 nM. Also, in data set [3], the “Metabolic stability (Qh %)” value is below 24%.

As to `CO[C@@H]1CN(c2cccc(-c3cccc(C)c3OCc3ccc4c(c3)C(C)(C)CN(C3COC3)CC4)n2)CC[C@@H]1C(=O)O` [Compound 326], the solubility at 24 h was 129 µg/mL (≈ 220 µM) in data set [1] (setting [4]), 91.1 µg/mL (≈ 156 µM) in data set [1] (setting [5]) and 71.6 µg/mL (≈ 122 µM) in data set [1] (setting [6]). The same compound yielded an EC50 in data set [2] of 1 nM. Further, the “Metabolic stability (Qh %)” value in data set [3] amounted to 59%.

`CCOC[C@H]1N(c2cccc(-c3cccc(C)c3OCc3cc(C)c4c(c3)CCN(C3CCOCC3)C4)n2)C[C@@H]2C[C@@]21C(=O)O` [Compound 315]: the values for the solubility at 24 h in data set [1] (setting [4]), in data set [1] (setting [5]) and in data set [1] (setting [6]) were 137 µg/mL (≈ 224 µM), 135 µg/mL (≈ 221 µM) and 119 µg/mL (≈ 195 µM), respectively. Further, in data set [2], it took 18 nM to reach a half-maximal effect (EC50). Moreover, the “Metabolic stability (Qh %)” value in data set [3] is on record as below 24%.

Regarding `Cc1cc(COc2c(C)cccc2-c2cccc(N3C[C@@H]4C[C@]4(C(=O)O)C3)n2)cc2c1CN(C1CCOC1)CC2` (stereo partly shown) [Compound 24], the solubility at 24 h in data set [1] (setting [4]) turned out to be 110 µg/mL (≈ 204 µM); in data set [1] (setting [5]), 98 µg/mL (≈ 182 µM); in data set [1] (setting [6]), 69 µg/mL (≈ 128 µM). For the same compound, the EC50 in data set [2] was found to be 6 nM. Moreover, the “Metabolic stability (Qh %)” value in data set [3] is listed as below 24%.

Consider `Cc1cccc(-c2csc(N3C[C@@H]4C[C@]4(C(=O)O)C3)n2)c1OCc1ccc2c(c1C)CCN(C1CCC1)C2` [Compound 137], for which the results for the solubility at 24 h in data set [1] (setting [4]), in data set [1] (setting [5]) and in data set [1] (setting [6]) were 100 µg/mL (≈ 189 µM), 71 µg/mL (≈ 134 µM) and 51 µg/mL (≈ 96.3 µM), respectively. For the same compound, a half-maximal effect in data set [2] (EC50) was put at 67 nM. The “Metabolic stability (Qh %)” value in data set [3] turned out to be 32%.

Turning to `CO[C@H]1CN(c2nc(-c3cc(C)ccc3OCc3cc(C)c4c(c3F)CCN(C3CCOCC3)C4)cs2)CC[C@H]1C(=O)O` [Compound 253], the solubility at 24 h in data set [1] (setting [4]) was found to be 127 µg/mL (≈ 208 µM); in data set [1] (setting [5]), 7.7 µg/mL (≈ 12.6 µM); in data set [1] (setting [6]), 1.1 µg/mL (≈ 1.8 µM). For the same compound, the EC50 in data set [2] amounted to 9 nM. The “Metabolic stability (Qh %)” value in data set [3] is given as below 24%.

With `Cc1cc(COc2c(C)cccc2-c2csc(N3CC[C@@]4(C(=O)O)C[C@H]4C3)n2)cc2c1CN(C1CCOC1)CC2` (stereo partly shown) [Compound 95], the solubility at 24 h in data set [1] (setting [4]) turned out to be 120 µg/mL (≈ 214 µM); in data set [1] (setting [5]), 66 µg/mL (≈ 118 µM); in data set [1] (setting [6]), 31 µg/mL (≈ 55.4 µM). The EC50 in data set [2] came out at 2 nM. Moreover, the “Metabolic stability (Qh %)” value in data set [3] is 49%.

With `CCO[C@@H]1CN(c2nccc(-c3cccc(C)c3OCc3cc4c(c(OC)c3)CN(C3CCOCC3)CC4)n2)CC[C@@H]1C(=O)O` [Compound 248], the results for the solubility at 24 h in data set [1] (setting [4]), in data set [1] (setting [5]) and in data set [1] (setting [6]) were 91.2 µg/mL (≈ 148 µM), 88.9 µg/mL (≈ 144 µM) and 88.1 µg/mL (≈ 143 µM), respectively. A half-maximal response in data set [2] (EC50) required 578 nM. The “Metabolic stability (Qh %)” value in data set [3] is given as below 24%.

For the compound `Cc1ccc(OCc2cc(C)c3c(c2C)CCN(C2COC2)C3)c(-c2cccc(N3C[C@@H]4C[C@]4(C(=O)O)C3)n2)c1` [Compound 40], the results for the solubility at 24 h in data set [1] (setting [4]), in data set [1] (setting [5]) and in data set [1] (setting [6]) were 98 µg/mL (≈ 182 µM), 79 µg/mL (≈ 146 µM) and 52 µg/mL (≈ 96.4 µM), respectively. The EC50 in data set [2] is 38 nM. Also, the “Metabolic stability (Qh %)” value in data set [3] was below 24%.

As for `CO[C@H]1CN(c2cccc(-c3cccc(C)c3OCc3ccc4c(c3F)CCN(C3CCOCC3)CC4)n2)CC[C@H]1C(=O)O` [Compound 277], the results for the solubility at 24 h in data set [1] (setting [4]), in data set [1] (setting [5]) and in data set [1] (setting [6]) were 133 µg/mL (≈ 220 µM), 97.1 µg/mL (≈ 161 µM) and 74.4 µg/mL (≈ 123 µM), respectively. In addition, the EC50 in data set [2] was found to be 4 nM. Further, the “Metabolic stability (Qh %)” value in data set [3] is below 24%.

With `COc1cc(COc2c(Cl)cccc2-c2csc(N3CC[C@H](C(=O)O)[C@H](OC)C3)n2)cc2c1CN(C1CCOCC1)CC2` [Compound 265], the solubility at 24 h in data set [1] (setting [4]) was 117 µg/mL (≈ 187 µM); in data set [1] (setting [5]) it was 53.7 µg/mL (≈ 85.5 µM); in data set [1] (setting [6]) it was 46.7 µg/mL (≈ 74.3 µM). It took 15 nM to reach a half-maximal effect in data set [2] (EC50). Further, in data set [3], the “Metabolic stability (Qh %)” value is given as below 24%.

As to `Cc1cccc(-c2csc(N3C[C@@H]4C[C@]4(C(=O)O)C3)n2)c1OCc1cc(C#N)c2c(c1)CCN(C1CCOCC1)C2` [Compound 142], the solubility at 24 h in data set [1] (setting [4]) came to 110 µg/mL (≈ 193 µM); in data set [1] (setting [5]), 69 µg/mL (≈ 121 µM); in data set [1] (setting [6]), 69 µg/mL (≈ 121 µM). In addition, the concentration giving a half-maximal response (EC50) in data set [2] was 23 nM. Further, the “Metabolic stability (Qh %)” value in data set [3] was below 24%.

Take `CCO[C@@H]1CN(c2cccc(-c3cccc(C)c3OCc3ccc4c(c3C)CCN(C3CCOCC3)CC4)n2)CC[C@@H]1C(=O)O` [Compound 239]: the values for the solubility at 24 h in data set [1] (setting [4]), in data set [1] (setting [5]) and in data set [1] (setting [6]) were 126 µg/mL (≈ 205 µM), 123 µg/mL (≈ 200 µM) and 117 µg/mL (≈ 191 µM), respectively. In addition, the EC50 in data set [2] was 5 nM. The “Metabolic stability (Qh %)” value in data set [3] worked out at 87%.

Consider `COC[C@H]1N(c2nc(-c3cccc(C)c3OCc3ccc4c(c3C)CCN(C3CCOCC3)C4)cs2)C[C@@H]2C[C@@]21C(=O)O` [Compound 159], for which the solubility at 24 h in data set [1] (setting [4]) worked out at 120 µg/mL (≈ 199 µM); in data set [1] (setting [5]), 95 µg/mL (≈ 157 µM); in data set [1] (setting [6]), 89 µg/mL (≈ 147 µM). In data set [2], the EC50 is 44 nM. In addition, the “Metabolic stability (Qh %)” value in data set [3] worked out at 30%.

Regarding `CCO[C@@H]1CN(c2nccc(-c3cccc(C)c3OCc3ccc4c(c3C)CCN(C3CCOCC3)CC4)n2)CC[C@@H]1C(=O)O` [Compound 276], the solubility at 24 h in data set [1] (setting [4]) came out at 126 µg/mL (≈ 206 µM); in data set [1] (setting [5]) it was 84.8 µg/mL (≈ 138 µM); in data set [1] (setting [6]) it was 90.6 µg/mL (≈ 147 µM). In data set [2], this compound had an EC50 of 150 nM. Further, the “Metabolic stability (Qh %)” value in data set [3] is below 24%.
